Here are results for two compounds from patent US9763963B2, “Topically active steroids for use in interstitial pulmonary fibrosis” (Soligenix, Inc., priority 2008, dated 2017).

The test system of data set [1] is pulmonary function (FVC, FEV1, TLC, DLCO). Nature of the data set: pulmonary function testing after allogeneic HCT, oral BDP versus placebo. The format is in vivo, human. The source says:
Patients whose symptoms were controlled at study day ten continued on study drug while the prednisone dose was rapidly tapered. Patients whose symptoms required additional prednisone were considered treatment failures. Study drug was discontinued on the day of treatment failure. The duration of treatment with study drug was 30 days with a 10-day follow-up period in the first trial and 50 days with a 30-day follow-up period in the second trial.
Pulmonary function assessments included forced vital capacity (FVC), one-second forced expiratory volume (FEV1), total lung capacity (TLC), and carbon monoxide diffusion capacity (DLCO), which was adjusted for hemoglobin level at the time PFTs were obtained. All PFT values were expressed as a percent of the predicted value calculated according to published equations (Crapo R O et al., Am Rev Respir Dis, 1981; 123:659-664; Crapo R O et al., Am Rev Respir Dis, 1981; 123:185-189). Pretransplantation and Day 80 PFTs were obtained, regardless of the presence or absence of symptoms. After discharge, patients were encouraged to return at one year after transplantation, at which time another PFT was obtained. For purposes of the current study, PFTs performed between days 60 and 100 were considered as valid for the Day 80 PFT and tests performed between days 265 and 465 as valid for the one-year PFT. Change in lung function was assessed by comparing PFT parameters performed prior to start of conditioning to those obtained post-transplantation at Day 80 and one year. Analysis of change in lung function was done on an intent-to-treat basis, by randomization assignment to oral BDP or placebo, with maintenance of the study blind.

Data set [2] relates to noninfectious pulmonary complications. Nature of the data set: noninfectious pulmonary complications after randomization (record review). The format is in vivo, human. The source says: (§1) While blinded to randomization assignment, investigators reviewed all patients' pulmonary radiologic records accumulated from the time of randomization to one year after transplantation. The medical records of all patients with abnormal pulmonary radiological findings were reviewed to determine whether the pulmonary disease was a clinically significant noninfectious or infectious syndrome. Clinically significant noninfectious pulmonary syndromes included idiopathic pneumonia syndrome (IPS), defined as widespread alveolar injury in the absence of active lower respiratory tract infection after HCT (Freudenberger T D et al., Blood, 2003; 102:3822-3828, diffuse alveolar hemorrhage (DAH), defined as IPS with bronchioalveolar lavage showing progressively bloodier return, or biopsy-proven cryptogenic organizing pneumonia (COP) otherwise known as bronchiolitis obliterans organizing pneumonia (BOOP). Clinically significant pulmonary infection required microbiologic documentation of an infectious agent in the respiratory tract via bronchoscopy or resolution of pulmonary abnormalities after empirical antibiotic therapy with no addition of immunosuppressive agents.

A further data set has as its system pulmonary infection. Nature of the data set: pulmonary infections after randomization (record review). The format is in vivo, human.
From the text: as §1

Data set [3] concerns gastrointestinal graft-versus-host disease (GVHD). The following applies: cited from earlier work.
Data set [4] in a line: bioavailability study of oral BDP, given orally and intravenously to 12 healthy subjects.
The nature of data set [5]: BDP and 17-BMP in plasma of right atrial blood after oral BDP. As to conditions: oral BDP 2 mg.
Experimental: Pharmacokinetic parameters were calculated using WinNonlin v. […] Plasma concentration-time data were plotted and non-compartmental parameters were calculated using the linear trapezoidal rule. Estimates for half-lives were obtained using regression analysis by specifying an appropriate range of time points for the most linear portions of the log concentration-linear time data.
[6] abbreviates: pre-HCT baseline to transplant day 80.

“And” between values parts separate entries of the source, which are not always exact repeats. Equal entries are not always repeated.

On to beclomethasone 17,21-dipropionate [BDP], for which the “DLCO: mean decrease from baseline to one year” value in data set [1] (32 patients with data, placebo 15.27%, p=0.11) is listed as 7.67%. In addition, in data set [1] (mean, n = 33), the “DLCO, pulmonary function at one year” value is reported as 78.1% of predicted normal values; the “FEV1, pulmonary function at one year” value is reported as 85.9% of predicted normal values; the “FVC, pulmonary function at one year” value is recorded as 89.4% of predicted normal values; the “TLC, pulmonary function at one year” value is given as 95.7% of predicted normal values. For the same compound, the “DLCO, pulmonary function at Day 80” value in data set [1] (mean, n = 54) is reported as 86.0% of predicted normal values. The “TLC, pulmonary function at Day 80” value in data set [1] (mean, n = 55) is 96.9% of predicted normal values. In data set [1] (mean, n = 56), the “FEV1, pulmonary function at Day 80” value is 90.3% of predicted normal values and the “FVC, pulmonary function at Day 80” value was 93.8% of predicted normal values. The “FEV1: mean change” value in data set [1] (pre-HCT baseline to day 80, percent of predicted, range −22, +34, p 0.48) is reported as −0.05. Besides, in data set [1] (pre-HCT baseline to day 80, percent of predicted, range −25, +57, p 0.23), the “TLC: mean change” value was “+1.41”. In addition, the “FVC: mean change” value in data set [1] (pre-HCT baseline to day 80, percent of predicted, range −30, +35, p 0.26) is given as “+0.34”. In data set [1] (setting [6]), the “FEV1: % of patients who experienced a decrease” value is listed as “(50) %”, the “FVC: % of patients who experienced a decrease” value is reported as “(50) %” and the “TLC: % of patients who experienced a decrease” value is “(58) %”. Besides, the “DLCO: N, proportion of patients who experienced a decrease” value in data set [1] (pre-HCT baseline to transplant day 80, p 0.02) is 27 of 49 and 27/49. For the same compound, the “FVC: N, proportion of patients who experienced a decrease” value in data set [1] (pre-HCT baseline to transplant day 80, p 0.66) was 25/50. Further, the “FEV1: N, proportion of patients who experienced a decrease” value in data set [1] (pre-HCT baseline to transplant day 80, p 0.83) is recorded as 25/50. In addition, in data set [1] (pre-HCT baseline to transplant day 80, p 0.88), the “TLC: N, proportion of patients who experienced a decrease” value was 29/50. Besides, in data set [2] (after Day 200), the noninfectious events result is reported as “four”. Further, the “cases of noninfectious pulmonary complications” value in data set [2] (first 200 days after randomization, 60 patients, placebo four) was “no cases”. Moreover, the “day of noninfectious event” value in data set [2] (in order: COP/BOOP, IPS, bronchiolitis obliterans syndrome, DAH) was 207 days and 212 days and 244 days and 269 days. Moreover, the “cases of pulmonary infection” value in the data set on pulmonary infection (first 200 days after randomization) came to 6. For the same compound, the “cases of pulmonary infection” value in the data set with pulmonary infection (first year after randomization, 60 patients, placebo 11) is reported as 8. Also, the “share of first-year pulmonary infections that occurred in the first 200 days” value in the data set on pulmonary infection (in vivo) was 75%. The “patients who developed noninfectious pulmonary infiltrative disorders” value in data set [3] (80-day study period, placebo 12/67 (18%)) is given as 0/62. In addition, the multiple bacteremic episodes result in data set [3] (most recent trial, placebo 9%) is given as “none”. Further, the fungal infections in data set [3] (most recent trial, placebo 14%) was 7%. Also, the cytomegalovirus reactivations in data set [3] (most recent trial, placebo 39%) is on record as 28%. The “reduction in mortality risk” value in data set [3] (one-year post-randomization) is 45%. In addition, in data set [4] (oral BDP 2 mg), the “intravenous dexamethasone dose of equivalent systemic exposure” value is “less than 1 mg” and the “oral prednisone dose of equivalent systemic exposure” value came out at 2.5 mg.

With `CCC(=O)O[C@]1(C(=O)CO)[C@@H](C)C[C@H]2[C@@H]3CCC4=CC(=O)C=C[C@]4(C)[C@@]3(Cl)[C@@H](O)C[C@@]21C` [17-BMP, 17-beclomethasone monopropionate], in data set [5] (study Day 50, four patients), the “time of peak concentration in right atrial blood, median” value turned out to be 1.5 h. Besides, in data set [5] (study Day 50, range 3.1-6.8), the median half-life was 6.3 h. The “median Cm” value in data set [5] (study Day 50, range 632-3701) is recorded as 1738 pg/mL. In data set [4] (active metabolite after oral BDP, unpublished data), the total oral bioavailability is 21-41%.
